# From patent publication US12358960B2, “Selective targeting of ubiquitin- and ubiquitin-like E1-activating enzymes by structurally-stabilized peptides” (Dana-Farber Cancer Institute, Inc., priority 2019, dated 2025)
# Entries after “also recorded” stand apart in the source; their conditions may differ. Bridge positions count the residues as written; N and C are the ends. Square brackets hold non-standard residues; d marks the D form. Ends that are not written are not given here. * marks the point of attachment. R8 = C=CCCCCCC[C@@](C)(N)C(=O)O; S5 = C=CCCC[C@](C)(N)C(=O)O; Nle = CCCC[C@H](N)C(=O)O; Dab = NCC[C@H](N)C(=O)O; Acryloyl = C=CC(=O)*
# Target: T1, Human E1 activating enzyme UBA1 (Homo sapiens, UniProt P22314)
# T1 sequence (P22314 1-1058): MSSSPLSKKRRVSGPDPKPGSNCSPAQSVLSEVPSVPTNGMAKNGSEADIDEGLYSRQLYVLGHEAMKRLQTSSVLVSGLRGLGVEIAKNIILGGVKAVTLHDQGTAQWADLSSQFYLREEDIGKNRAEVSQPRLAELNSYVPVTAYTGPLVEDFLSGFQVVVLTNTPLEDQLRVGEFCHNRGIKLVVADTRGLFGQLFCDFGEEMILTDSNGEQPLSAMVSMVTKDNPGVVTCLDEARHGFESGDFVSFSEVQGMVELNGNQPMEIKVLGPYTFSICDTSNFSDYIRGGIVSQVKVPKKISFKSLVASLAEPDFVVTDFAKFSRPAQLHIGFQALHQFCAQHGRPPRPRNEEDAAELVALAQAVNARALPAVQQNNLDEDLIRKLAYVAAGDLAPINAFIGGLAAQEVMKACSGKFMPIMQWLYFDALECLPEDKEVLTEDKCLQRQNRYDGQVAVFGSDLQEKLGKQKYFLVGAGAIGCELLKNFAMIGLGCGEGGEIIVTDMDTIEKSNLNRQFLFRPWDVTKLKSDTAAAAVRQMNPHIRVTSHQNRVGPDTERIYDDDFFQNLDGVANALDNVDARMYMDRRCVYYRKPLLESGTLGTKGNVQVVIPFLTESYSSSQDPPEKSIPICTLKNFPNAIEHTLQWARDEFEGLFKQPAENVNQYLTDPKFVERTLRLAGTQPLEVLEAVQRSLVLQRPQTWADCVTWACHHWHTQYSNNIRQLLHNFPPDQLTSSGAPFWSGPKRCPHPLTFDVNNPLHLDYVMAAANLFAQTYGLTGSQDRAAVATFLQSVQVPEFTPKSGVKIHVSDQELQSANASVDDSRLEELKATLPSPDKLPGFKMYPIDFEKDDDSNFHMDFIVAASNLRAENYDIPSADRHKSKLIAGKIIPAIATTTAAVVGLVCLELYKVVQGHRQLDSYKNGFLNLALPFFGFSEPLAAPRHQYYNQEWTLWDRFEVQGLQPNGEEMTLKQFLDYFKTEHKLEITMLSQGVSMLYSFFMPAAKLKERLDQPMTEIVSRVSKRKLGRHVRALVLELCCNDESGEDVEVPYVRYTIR
# Experiment: In vitro enzyme inhibition assay: E1-mediated ubiquitin thioester transfer to E2 (band shift, silver stain)
# Type: biochemical
# Conditions: 100 μM peptide, UbcH5b E2 enzyme, 45 minutes, staple scan
# Description: In vitro Enzyme Inhibition Assays: To assess an E2 hA peptide's inhibition of an E1 enzyme, an in vitro enzyme inhibition assay can be used, for example. The in vitro enzyme inhibition assay measures an E2 hA peptide's ability to inhibit conjugation of ubiquitin to E2 by E1. Briefly, recombinant E1 (e.g., UBA1), recombinant E2 (e.g., UBE2A), ubiquitin, and Mg-ATP are combined in the presence of an E2 hA peptide or vehicle control (e.g., 1% DMSO) for a period of time (e.g., 30 minutes) at room temperature in a buffer containing, e.g., 50 mM NaCl, 50 mM HEPES pH 7.5. Control reaction includes no E1. Reactions are quenched by addition of SDS-containing loading dye and samples are resolved on a gel (e.g., a 4-12% Bis-Tris protein gel) under nonreducing conditions. Proteins on the gel are visualized via, e.g., silver stain. Conjugation of ubiquitin to E2 by E1 is monitored by conversion of free E2 (˜17 kDa) to E2˜ubiquitin conjugate (˜26 kDa).
# Control reaction included no E1 enzyme. Reactions were quenched by addition of SDS-containing loading dye and samples were resolved on a 4-12% Bis-Tris protein gel under nonreducing conditions. Proteins were visualized via silver stain. Conjugation of ubiquitin to E2 by E1 was monitored by conversion of free E2 (17 kDa) to E2˜ubiquitin conjugate (26 kDa).
# The ability of the peptides to inhibit E1-mediated thioester transfer to E2 was evaluated. Human E1 activating enzyme UBA1 (10 nM), UbcH5b E2 enzyme (150 nM), ubiquitin (1 μM), and Mg-ATP (20 μM) were combined in the presence of stapled peptide at a range of concentrations or vehicle control (1% DMSO) for 45 minutes at room temperature in buffer containing 50 mM NaCl, 50 mM HEPES, 1 mM TCEP pH 7.5. Reactions were quenched by addition of SDS-containing loading dye and samples were resolved on a 4-12% Bis-Tris protein gel under nonreducing conditions. Proteins were visualized via silver stain. Conjugation of ubiquitin to E2 by E1 was monitored by conversion of free E2 (17 kDa) to E2˜ubiquitin conjugate (26 kDa). Inhibition percentage was calculated from densitometry of silver stain images.
# Streptavidin-biotin pull-down assays: For recombinant protein pull-downs, 10 pmol recombinant human UBA1 was incubated with 5 nmol C-terminally biotinylated SAH-UBE2A or DMSO vehicle control in a total volume of 1 mL binding buffer (50 mM NaCl, 20 mM HEPES, pH 7.4, 5 mM DTT) for 1.5 hours at 4° C. 30 μL of pre-equilibrated streptavidin agarose beads were then added and incubated for an additional 1.5 hours at 4° C. The beads were pelleted by centrifugation and washed three times with NP-40 buffer (20 mM HEPES, pH 7.4, 50 mM NaCl, 5 mM DTT, 0.5% [v/v] NP-40) before eluting the protein sample from the beads by heating at 70° C. for 10 min in 3×SDS loading buffer. Samples were subjected to electrophoresis and silver staining (Pierce 24612). For pull-down from cellular lysates, 0.75 mg HeLa cell lysate was incubated with 5 nmol C-terminally biotinylated SAH-UBE2A or DMSO vehicle control in a total volume of 1 mL binding buffer (50 mM NaCl, 20 mM HEPES, pH 7.4, 5 mM DTT) containing protease-phosphatase inhibitor cocktail for 2 hours at 4° C. 30 μL of pre-equilibrated streptavidin agarose beads (ThermoFisher 20357) were then added and incubated for an additional 1.5 hours at 4° C. The beads were pelleted by centrifugation and washed three times with NP-40 buffer (20 mM HEPES, pH 7.4, 50 mM NaCl, 5 mM DTT, 0.5% [v/v] NP-40) before eluting the protein sample from the beads by heating at 70° C. for 10 min in 3×SDS loading buffer. Proteins were separated by SDS-PAGE gel electrophoresis and detected by western blot against UBE1 (Abcam ab34711). In vitro Enzyme Inhibition Assays: Recombinant human E1 activating enzyme UBA1 (10 nM), E2 enzyme (150 nM), ubiquitin (1 μM), and Mg-ATP (20 μM) are combined in the presence of peptide or vehicle control (1% DMSO) for 45 minutes at room temperature in buffer containing 50 mM NaCl, 50 mM HEPES pH 7.5. Control reaction includes no E1 enzyme. […]
row,Substance,inhibition of E1-mediated ubiquitin transfer to E2 (conversion of E2 to E2~ubiquitin)
1,BPSSX1SRQLLRX2QLKEIQ [SEQ ID NO:49],inhibited conversion of E2 to E2˜ubiquitin by E1
2,BPSSX2SRQX2LRKQLKEIQ [SEQ ID NO:41],unable to inhibit E1-mediated ubiquitin transfer to E2
3,BPSSASRX1LLRKQLX2EIQ [SEQ ID NO:52],inhibited conversion of E2 to E2˜ubiquitin by E1
4,BPSSASX1QLLRKQX2KEIQ [SEQ ID NO:51],unable to inhibit E1-mediated ubiquitin transfer to E2
5,BPSSASRQX1LRKQLKX2IQ [SEQ ID NO:53],inhibited conversion of E2 to E2˜ubiquitin by E1
6,BPSSASRQLLRKQX2KEIX2 [SEQ ID NO:48],unable to inhibit E1-mediated ubiquitin transfer to E2
7,BPSSASRQX2LRKX2LKEIQ [SEQ ID NO:44],inhibited conversion of E2 to E2˜ubiquitin by E1
8,BPSSASRQLX1RKQLKEX2Q [SEQ ID NO:54],unable to inhibit E1-mediated ubiquitin transfer to E2
9,BPSSASRQLLRX2QLKX2IQ [SEQ ID NO:46],inhibited conversion of E2 to E2˜ubiquitin by E1

# Same assay, conditions: Example 8
row,Substance,inhibition of E1-mediated thioester transfer to E2 by warhead-bearing stapled peptides
1,"BPSSX1SRQLLRX2QLJEIQ ([Nle]PSS[R8]SRQLLR[S5]QL[Dab](Acryloyl)EIQ; staple 5-12; not fully specified (N-terminus, C-terminus); printed as BPSSX1SRQLLRX2QLJEIQ) [SEQ ID NO:841, warhead-bearing stapled peptide, J acrylamide-bearing Dab at A11, staple A1 and A8]",inhibited E1-mediated thioester transfer to E2
2,"BX1LKRIHKX2LJDLARD ([Nle][R8]LKRIHK[S5]L[Dab](Acryloyl)DLARD; staple 2-9; not fully specified (N-terminus, C-terminus); printed as BX1LKRIHKX2LJDLARD) [SEQ ID NO:727, warhead-bearing stapled peptide, J acrylamide-bearing Dab at A11, staple A2 and A9]",inhibited E1-mediated thioester transfer to E2
3,"BSTPX1RRRLJRX2FKRLQ ([Nle]STP[R8]RRRL[Dab](Acryloyl)R[S5]FKRLQ; staple 5-12; not fully specified (N-terminus, C-terminus); printed as BSTPX1RRRLJRX2FKRLQ) [SEQ ID NO:680, warhead-bearing stapled peptide, J acrylamide-bearing Dab at A7, staple A2 and A9]",inhibited E1-mediated thioester transfer to E2
4,"BPSSAX1RQLLRJX2LKEIQ ([Nle]PSSA[R8]RQLLR[Dab](Acryloyl)[S5]LKEIQ; staple 6-13; not fully specified (N-terminus, C-terminus); printed as BPSSAX1RQLLRJX2LKEIQ) [SEQ ID NO:842, warhead-bearing stapled peptide, J acrylamide-bearing Dab at A8, staple A2 and A9]",inhibited E1-mediated thioester transfer to E2
5,"X1ALKRIHX2ELJDLARD ([R8]ALKRIH[S5]EL[Dab](Acryloyl)DLARD; staple 1-8; not fully specified (N-terminus, C-terminus); printed as X1ALKRIHX2ELJDLARD) [SEQ ID NO:763, warhead-bearing stapled peptide, J acrylamide-bearing Dab at A11, staple A1 and A8]",did not inhibit E1-mediated thioester transfer to E2
6,"BX1LKRIHJX2LNDLARD ([Nle][R8]LKRIH[Dab](Acryloyl)[S5]LNDLARD; staple 2-9; not fully specified (N-terminus, C-terminus); printed as BX1LKRIHJX2LNDLARD) [SEQ ID NO:691, warhead-bearing stapled peptide, J acrylamide-bearing Dab at A8, staple A2 and A9]",did not inhibit E1-mediated thioester transfer to E2

# Same assay, conditions: SAH-UBE2A-11 variants and controls, Examples 4, 7, 13
row,Substance,inhibition of E1-mediated thioester transfer to E2 by mutant / additional stapled peptides
1,BSTPX1RARLBRX2FKRLQ (Ac-[Nle]STP[R8]RARL[Nle]R[S5]FKRLQ-NH2; staple 5-12) [SEQ ID NO:817],impair the inhibitory activity of SAH-UBE2A-11
2,"BSTPX1RERLBRX2FKRLQ (Ac-[Nle]STP[S5]RERL[Nle]R[R8]FKRLQ-NH2; staple 5-12) [SAH-UBE2A-11-R7E, point mutant negative control stapled peptide]",reduced inhibitory activity as compared to SAH-UBE2A
3,BSTPX1RRRABRX2FKRLQ ([Nle]STP[R8]RRRA[Nle]R[S5]FKRLQ-NH2; staple 5-12; not fully specified (N-terminus); printed as BSTPX1RRRABRX2FKRLQ) [SEQ ID NO:819],impair the inhibitory activity of SAH-UBE2A-11

# Same assay, conditions: panel of human E2 enzymes (UBE2A, UBE2B, UBE2C, UBE2D1-4 etc.)
row,Substance,inhibition of E1-mediated thioester transfer to a variety of human E2 enzymes
1,"BSTPX1RERLBRX2FKRLQ (Ac-[Nle]STP[S5]RERL[Nle]R[R8]FKRLQ-NH2; staple 5-12) [SAH-UBE2A-11-R7E, point mutant negative control stapled peptide]",diminished inhibitory capacity; also recorded: mitigated by a single point mutation (R7E)

# Same assay, conditions: range of peptide concentrations, UbcH5b E2 enzyme, 45 minutes
row,Substance,"inhibition of E1-mediated thioester transfer to E2, dose response"
1,BAGTX1LKRLBAX2YK [SAH-UBE2G2-11],inhibited E1-mediated thioester transfer to E2 in a dose-dependent manner; also recorded: dose-dependently inhibit E1-mediated thioester transfer to E2
